Reference: ChEMBL document CHEMBL6114962, “Nucleoside antiviral agents with atypical structures and new targets” (Bioorg Med Chem Lett, 2025)
pEC50, pIC50: −log10 of the molar value. In brackets after ≈: the same amount, converted by molar mass.

Columns and labels:
[1] = Cytotoxicity against African green monkey Vero E6 cells assessed as reduction in cell viability by Cell titer-Glo luminescent assay; assay type: toxicity, cell-based; settings: chlorocebus sabaeus
SARS-CoV-2 = test: Antiviral activity against SARS CoV-2 Omicron B1.1.529 infected in Vero E6 cells at 0.02 MOI assessed as reduction in viral RNA growth incubated for 24 hrs by qRT-PCR analysis; assay type: functional, organism-based; settings: Severe acute respiratory syndrome coronavirus 2, Omicron B1.1.529, Vero C1008, 24 h
Human coronavirus OC43 = test: Antiviral activity against Human coronavirus OC43 infected in Vero cells assessed as reduction in viral replication pre-incubated with virus for 1 hr followed by washout and compound treatment and measured after 3 days by qRT-PCR analysis; assay type: functional, organism-based; settings: Betacoronavirus 1, Vero
[2] = Cytotoxicity against African green monkey Vero cells; assay type: toxicity, cell-based; settings: chlorocebus sabaeus
Vaccinia virus = test: Antiviral activity against Vaccinia virus; assay type: functional, organism-based; settings: Orthopoxvirus vaccinia
[3] = Cytotoxicity against human HFF cells; assay type: toxicity, cell-based
SARS-CoV [4] = test: Antiviral activity against SARS-CoV Urbani infected in Vero E6 cells at 0.01 to 0.025 MOI assessed as inhibition of virus induced cytopathic effect; assay type: functional, organism-based; settings: Severe acute respiratory syndrome-related coronavirus, Vero C1008
[5] = Cytotoxicity against African green monkey Vero E6 cells assessed as reduction in cell viability by neutral red uptake assay; assay type: toxicity, cell-based, Vero C1008; settings: chlorocebus sabaeus
Human alphaherpesvirus 3 [6] = test: Antiviral activity against Varicella zoster virus infected in human HEL cells assessed as reduction in plaque formation incubated for 72 hrs; assay type: functional, organism-based; settings: Human alphaherpesvirus 3, HEL
[7] = Cytotoxicity against human HEL cells; assay type: toxicity, cell-based
Ebolavirus = test: Antiviral activity against Ebola virus infected in Vero E6 cells assessed as virus-induced cytopathic effect incubated for 3 days by CPE assay; assay type: functional, organism-based; settings: Orthoebolavirus, Vero C1008, 72 h
[8] = Cytotoxicity against African green monkey Vero E6 cells assessed as reduction in cell growth; assay type: toxicity, cell-based; settings: chlorocebus sabaeus
HEL = test: Cytotoxicity against human HEL cells assessed as reduction in cell viability incubated for 24 hrs by MTT assay; assay type: functional
Hepatitis C virus [9] = test: Antiviral activity against Hepatitis C virus infected in human Huh-7 cells assessed as reduction in viral infection incubated for 72 hrs by qRT-PCR analysis; assay type: functional, organism-based, Hepacivirus hominis; settings: Huh-7, 72 h
Human alphaherpesvirus 3 [10] = test: Antiviral activity against Varicella zoster virus infected in human HEL cells assessed as inhibition of plaque formation measured for 3 days; assay type: functional, organism-based; settings: Human alphaherpesvirus 3, HEL, 72 h
HMEC-1 = test: Cytotoxicity against human HMEC-1 cells assessed as reduction in cell growth incubated for 24 hrs; assay type: functional
Human betaherpesvirus 5 = test: Antiviral activity against HCMV; assay type: functional, organism-based
[11] = biological target: RNA-directed RNA polymerase (Hepacivirus hominis, UniProt O39930); test: Inhibition of Hepatitis C virus NS5B polymerase
Hepatitis C virus [12] = test: Antiviral activity against Hepatitis C virus infected in Vero E6 cells assessed as virus induced cytopathic effect; assay type: functional, organism-based, Hepacivirus hominis; settings: Vero C1008
SARS-CoV [13] = test: Antiviral activity against SARS-CoV Frankfurt-1 infected in Vero E6 cells assessed as reduction in viral replication; assay type: functional, organism-based; settings: Severe acute respiratory syndrome-related coronavirus, Frankfurt-1, Vero C1008
SARS-CoV [14] = test: Antiviral activity against SARS-CoV HKU39849 infected in Vero E6 cells assessed as reduction in viral replication; assay type: functional, organism-based; settings: Severe acute respiratory syndrome-related coronavirus, HKU39849, Vero C1008
[15] = Cytotoxicity against African green monkey Vero E6 cells assessed as reduction in cell viability measured after 72 hrs by WST-1 assay; assay type: toxicity, cell-based, Vero C1008; settings: chlorocebus sabaeus

RNA-directed RNA polymerase, sequence (O39930 whole entry): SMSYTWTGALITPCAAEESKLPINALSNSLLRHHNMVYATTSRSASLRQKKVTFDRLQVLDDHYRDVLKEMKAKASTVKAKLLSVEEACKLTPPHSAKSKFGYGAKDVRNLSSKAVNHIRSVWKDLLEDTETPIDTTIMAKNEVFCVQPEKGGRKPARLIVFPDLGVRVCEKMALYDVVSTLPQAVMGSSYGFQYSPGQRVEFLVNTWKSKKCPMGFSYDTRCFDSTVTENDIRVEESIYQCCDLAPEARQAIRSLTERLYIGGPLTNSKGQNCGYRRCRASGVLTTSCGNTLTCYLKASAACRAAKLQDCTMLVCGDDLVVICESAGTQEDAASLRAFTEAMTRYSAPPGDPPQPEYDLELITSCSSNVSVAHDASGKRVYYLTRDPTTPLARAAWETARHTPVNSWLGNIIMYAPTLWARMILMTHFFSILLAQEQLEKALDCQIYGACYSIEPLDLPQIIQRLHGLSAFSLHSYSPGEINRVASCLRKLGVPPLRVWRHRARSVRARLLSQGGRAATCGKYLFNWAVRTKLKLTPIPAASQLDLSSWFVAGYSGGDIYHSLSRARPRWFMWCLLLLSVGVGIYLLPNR

## OC[C@H]1O[C@@H](n2cnc3c(N[C@@H]4CCOC4)ncnc32)[C@H](O)[C@@H]1O [TECADENOSON]
[1]
  CC50: > 100 µM
SARS-CoV-2
  pEC50: 5.95

## NC(=O)c1cc([C@@H]2O[C@H](CO)[C@@H](O)[C@H]2O)n2nc(CF)nc(N)c12
Human coronavirus OC43
  pEC50: 5.89
[2]
  CC50: 45 µM

## Nc1ccn(C[C@@H](CO)OCP(=O)(O)O)c(=O)n1 [CIDOFOVIR ANHYDROUS]
Vaccinia virus
  pEC50: 4.56
[3]
  CC50: > 100 µM

## COc1c(C)c2c(c(O)c1C/C=C(\C)CCC(=O)O)C(=O)OC2 [MYCOPHENOLIC ACID]
SARS-CoV [4]
  pEC50: < 4.52
[5]
  CC50: > 30 µM

## O=c1nc2oc(CCCCCCCCCI)cc2cn1[C@H]1C[C@H](O)[C@@H](CO)O1
Human alphaherpesvirus 3 [6]
  pEC50: 7.47
[7]
  CC50: > 200 µM

## Nc1nccc2c1ncn2[C@@H]1C[C@H](CO)[C@@H](O)[C@H]1O [3-DEAZAARISTEROMYCIN A]
Ebolavirus
  pEC50: 5.70
[8]
  CC50: > 100 µM

## COc1nc(N)nc2c1ncn2[C@@H]1O[C@H](CO)[C@@H](O)[C@@H]1O [NELARABINE]
[1]
  CC50: > 100 µM

## O=c1nc2oc(CCCCCCCCCF)cc2cn1[C@H]1C[C@H](O)[C@@H](CO)O1
Human alphaherpesvirus 3 [6]
  pEC50: 7.85
[7]
  CC50: 200 µM

## O=c1nc2c(cn1[C@H]1C[C@H](O)[C@@H](CO)O1)Oc1ccccc1N2
HEL
  CC50: > 100 µM

## O=c1nc2oc(CCCCCCCCCBr)cc2cn1[C@H]1C[C@H](O)[C@@H](CO)O1
Human alphaherpesvirus 3 [6]
  pEC50: 7.51
[7]
  CC50: > 50 µM

## O=c1[nH]cnc2c([C@@H]3N[C@H](CO)[C@@H](O)[C@H]3O)c[nH]c12 [FORODESINE]
[1]
  CC50: > 100 µM

## Nc1nccc2c1ncn2[C@@H]1C=C(CO)[C@@H](O)[C@H]1O
Ebolavirus
  pEC50: 4.52
[8]
  CC50: > 100 µM

## CCC(CC)COC(=O)[C@H](C)N[P@](=O)(OC[C@H]1O[C@@](C#N)(c2ccc3c(N)ncnn23)[C@H](O)[C@@H]1O)Oc1ccccc1 [REMDESIVIR]
[1]
  CC50: > 100 µM
SARS-CoV-2
  pEC50: 6.01

## CC(C)OC(=O)[C@H](C)N[P@](=O)(OC[C@H]1O[C@@H](n2ccc(=O)[nH]c2=O)[C@](C)(F)[C@@H]1O)Oc1ccccc1 [SOFOSBUVIR]
Hepatitis C virus [9]
  pEC50: 7.04

## C#CCn1c(=O)n(C(=O)c2ccccc2F)c(=O)c2ccccc21
Human alphaherpesvirus 3 [10]
  pEC50: 5.55
HMEC-1
  CC50: > 100 µM

## OC[C@@H]1O[C@H](n2cnc3cc(Br)c(Br)cc32)[C@@H](O)[C@H]1O
Human betaherpesvirus 5
  pEC50: 5.92

## O=c1nc(NO)ccn1[C@@H]1O[C@H](CO)[C@@H](O)[C@H]1O [N-HYDROXYCYTIDINE]
[11]
  pIC50: 4.30
Hepatitis C virus [12]
  pEC50: 5.30

## NC(=O)c1ncn([C@@H]2O[C@H](CO)[C@@H](O)[C@H]2O)n1 [RIBAVIRIN]
SARS-CoV [13]
  EC50: 20 µg/mL (≈ 81.9 µM)
SARS-CoV [14]
  EC50: 80 µg/mL (≈ 328 µM)
[15]
  CC50 at 72 h: > 200 µg/mL

## CC(C)C(=O)OC[C@H]1O[C@@H](n2ccc(NO)nc2=O)[C@H](O)[C@@H]1O [MOLNUPIRAVIR]
[1]
  CC50: > 100 µM
SARS-CoV-2
  pEC50: 5.97

## O=c1nc2oc(CCCCCCCCCCl)cc2cn1[C@H]1C[C@H](O)[C@@H](CO)O1
Human alphaherpesvirus 3 [6]
  pEC50: 7.92
[7]
  CC50: 200 µM

## C#Cc1c(C(N)=O)ncn1[C@@H]1O[C@H](CO)[C@@H](O)[C@H]1O
SARS-CoV [4]
  pEC50: < 4.40
[5]
  CC50: > 40 µM
